Measured values published in paper PMC9326880 (Journal of Food and Drug Analysis, 2017).
Where two headings read alike, the source gives them in different places.

What was measured:
P-gp [1] = biological target: T1, P-gp (Homo sapiens, UniProt P08183)
P-gp [2] = biological target: T1, P-gp; remark: listed apart in the source

T1 sequence (P08183 whole entry): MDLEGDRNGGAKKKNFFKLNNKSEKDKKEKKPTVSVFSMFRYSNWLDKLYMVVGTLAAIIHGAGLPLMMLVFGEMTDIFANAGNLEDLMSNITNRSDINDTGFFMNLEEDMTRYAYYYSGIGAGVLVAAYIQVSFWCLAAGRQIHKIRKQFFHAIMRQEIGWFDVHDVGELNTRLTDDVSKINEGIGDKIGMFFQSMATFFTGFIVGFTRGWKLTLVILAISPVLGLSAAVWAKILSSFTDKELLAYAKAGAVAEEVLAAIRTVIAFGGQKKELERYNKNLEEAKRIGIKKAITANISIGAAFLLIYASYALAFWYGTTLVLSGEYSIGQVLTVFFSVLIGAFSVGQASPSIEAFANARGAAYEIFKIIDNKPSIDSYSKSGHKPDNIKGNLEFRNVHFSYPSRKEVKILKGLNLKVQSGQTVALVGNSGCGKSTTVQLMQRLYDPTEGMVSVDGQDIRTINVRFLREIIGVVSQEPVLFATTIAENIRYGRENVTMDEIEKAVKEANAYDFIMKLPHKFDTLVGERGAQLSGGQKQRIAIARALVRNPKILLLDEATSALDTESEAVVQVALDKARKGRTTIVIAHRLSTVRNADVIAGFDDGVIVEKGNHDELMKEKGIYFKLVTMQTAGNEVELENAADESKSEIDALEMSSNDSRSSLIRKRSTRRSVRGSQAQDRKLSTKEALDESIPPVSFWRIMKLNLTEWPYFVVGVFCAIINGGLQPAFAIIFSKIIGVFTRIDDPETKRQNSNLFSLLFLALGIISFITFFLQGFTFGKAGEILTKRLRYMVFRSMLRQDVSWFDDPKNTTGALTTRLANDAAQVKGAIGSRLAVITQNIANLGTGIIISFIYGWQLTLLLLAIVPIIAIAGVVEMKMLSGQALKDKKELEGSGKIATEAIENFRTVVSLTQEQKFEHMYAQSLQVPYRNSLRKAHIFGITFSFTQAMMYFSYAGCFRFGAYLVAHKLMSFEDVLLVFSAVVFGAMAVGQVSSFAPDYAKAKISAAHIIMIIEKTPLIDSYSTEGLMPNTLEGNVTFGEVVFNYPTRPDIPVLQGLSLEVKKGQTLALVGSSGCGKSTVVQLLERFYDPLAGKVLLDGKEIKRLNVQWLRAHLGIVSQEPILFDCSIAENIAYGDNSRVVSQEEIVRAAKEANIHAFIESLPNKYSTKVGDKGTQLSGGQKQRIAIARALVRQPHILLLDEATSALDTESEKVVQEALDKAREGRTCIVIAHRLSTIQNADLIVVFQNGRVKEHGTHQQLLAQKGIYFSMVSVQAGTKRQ

SMILES | Influence on viability of LS 180 cells (MTT) (LS 180 cells) | Decrease of intracellular accumulation of rhodamine 123 (P-gp [1]) | Decrease of intracellular accumulation of rhodamine 123 (P-gp [2]) | Enhancement of intracellular accumulation of rhodamine 123 (P-gp [1])
COc1ccc2cc3[n+](cc2c1OC)CCc1cc2c(cc1-3)OCO2 [berberine, Berberine] | no toxic influences | 24–39% |  | 
c1c2c(cc3c1OCO3)-c1cc3ccc4c(c3c[n+]1CC2)OCO4 [coptisine, Coptisine] | no toxic influences | 24–39% |  | 
COc1cc2c(cc1OC)-c1cc3ccc(OC)c(OC)c3c[n+]1CC2 [palmatine, Palmatine] | no toxic influences | 16–18% |  | 
CO[C@H]1/C=C/O[C@@]2(C)Oc3c(C)c(O)c4c(O)c(c(/C=N/N5CCN(C)CC5)c(O)c4c3C2=O)NC(=O)/C(C)=C\C=C\[C@H](C)[C@H](O)[C@@H](C)[C@@H](O)[C@@H](C)[C@H](OC(C)=O)[C@@H]1C [rifampin, Rifampin] | no toxic influences |  | 22.7% | 
COc1ccc(CCN(C)CCCC(C#N)(c2ccc(OC)c(OC)c2)C(C)C)cc1OC (stereo not shown) [verapamil] | no toxic influences |  |  | 32.5%
